Assay results reported in US20030207400A1, “Vectors for dna delivery” (priority 2003, published 2003).

System: plasmid pCMV/mEPO
Experiment: Gel electrophoresis of complexes of plasmid and fluorescently labelled polyamides
Assay type: binding
Conditions: agarose gel, after 10 min or 5 hr incubation; control rhodamine-peptide
Method: The ability of the polyamides to bind the DNA plasmid was assessed by gel electrophoresis of complexes of plasmid and fluorescently labelled polyamides.
A plasmid pCMV/mEPO was constructed by inserting the mouse EPO (mEPO) coding sequence as a EcoRI-BamHI 0.6 Kb fragment into pViJnsB (Montgomery, D. L., Shiver J. W., Leander K. R., Perry, H. C., Friedman, A., Martinez, D., Ulmer, J. B., Donnelly, J. J., Liu, M. A. (1993) DNA Cell. Biol. 12, 777-783.), which contains the CMV immediate/early region promoter and enhancer with intron A followed by the BGH polyadenylation signal. The mouse EPO coding region including 40 bp of the 5′ untranslated region (Shoemaker, C. B., & Mitsock, L. D. (1986) Mol. Cell. Biol. 6, 849-858) was assembled from synthetic oligonucleotides as described (Stemmer, W. P. C, Crameri, A., Ha, K. D., Brennan, T. M., & Heyneker, H. L. (1995) Gene 164, 49-53.).
In a typical experiment either the rhodamine labelled polyamide (33), the peptide-polyamide (35) and the correspondent rhodamine-peptide as control, were dissolved in DMSO at a 0.55 mM concentration. Serial dilutions of the polyamides and the peptide were prepared in DMSO. The plasmid stock solution was 0.54 μM. […]

## Rhodamine-Aoc-Pro-Lys-Lys-Lys-Arg-Lys-Val-Gluu-Asp-Pro-Tyr-Lys(Br—CH2—CO)-Gly-Gly-CO—NH2 [compound 34]
  co-migration of the fluorescent label with the plasmid: does not co-migrate with the plasmid
